5 molecules from patent US8623846B2, “Diazeniumdiolate cyclohexyl derivatives” (Merck Sharp & Dohme Corp., priority 2010, dated 2014) can be followed below.

This assay has as its system Male beagle dogs. The assay is described as follows: canine telemetry protocol, blood pressure reduction efficacy. Format: in vivo. The settings on record: change from baseline, 3 mg/kg oral gavage; for ΔPP (mm Hg) 1-6 h / ΔPP (mm Hg) 6-12 h / ΔPP (mm Hg) 12-18 h: pulse pressure; for ΔSBP (mm Hg) 1-6 h / ΔSBP (mm Hg) 6-12 h / ΔSBP (mm Hg) 12-18 h: systolic blood pressure. The procedure:
Compounds of the invention were evaluated for blood pressure reduction efficacy using the following canine telemetry protocol described below.
Male beagle dogs (approximately 1-3 years old) with a body weight of between 10 and 16 kg were surgically implanted with DSI radiotelemetry devices (model: TL11M2-D70-PCT). Briefly, under an inhalant anesthesia, isoflurane/oxygen mixture (1-3.5%/to effect), the body of the telemetry device was positioned and secured intra-abdominally. Subsequently, the arterial catheter of the telemetry device was passed subcutaneously to the inguinal area and introduced into the femoral artery and advanced to the level of the descending aorta. The catheter was secured with 2-0 silk ligatures. The muscle and underlying fascia was closed over the catheter using absorbable suture and the skin was closed using non-absorbable suture. The animals were allowed a minimum recovery period of 2 weeks between surgery and the evaluation of test compounds.
Compound evaluation consisted of a 3 day paradigm at a 3 mg/kg dose. On the first day, no compounds were administered during a 24 hour period of baseline data collection. Blood pressure and heart rate data were collected continuously for one minute periods at 10 minute intervals. On the days of compound administration half the animals received test article with the other half receiving the vehicle used for compound formulation. All test materials were administered by oral gavage in a volume of 1 mL/kg. Data are expressed either as raw values (mm Hg or beats per minute) or as the change from baseline (average value for about 12 hours in low activity period prior to dosing). Change is SBP (systolic blood pressure) and PP (pulse pressure) over time is shown below: […]

As to `CN(/[N+]([O-])=N/O[C@H]1CC[C@H](C(=O)O)CC1)C(C)(C)C` [Example 6, Trans-4-({[(1Z)-2-tert-butyl-2-methyl-1-oxido-1λ^5-diazan-1-ylidene]amino}oxy)-cyclohexanecarboxylic acid], the “ΔPP (mm Hg) 1-6 h” value is reported as −12 mm Hg, the “ΔPP (mm Hg) 6-12 h” value was −4 mm Hg, the “ΔPP (mm Hg) 12-18 h” value is −2 mm Hg and the “ΔSBP (mm Hg) 1-6 h” value was −18 mm Hg. In addition, the “ΔSBP (mm Hg) 6-12 h” value is on record as −4 mm Hg and the “ΔSBP (mm Hg) 12-18 h” value is −2 mm Hg.
In the case of `CN(/[N+]([O-])=N/O[C@H]1CC[C@@H](C(=O)O)CC1)C(C)(C)C` [Example 3, Cis-4-({[(1Z)-2-tert-butyl-2-methyl-1-oxido-1λ^5-diazan-1-ylidene]amino}oxy)-cyclohexanecarboxylic acid], the “ΔPP (mm Hg) 1-6 h” value was −7 mm Hg, the “ΔPP (mm Hg) 6-12 h” value is on record as −8 mm Hg, the “ΔPP (mm Hg) 12-18 h” value is reported as −5 mm Hg and the “ΔSBP (mm Hg) 1-6 h” value is on record as −8 mm Hg. Also, the “ΔSBP (mm Hg) 6-12 h” value is −10 mm Hg and the “ΔSBP (mm Hg) 12-18 h” value is reported as −5 mm Hg.
Take `CCN(/[N+]([O-])=N/O[C@H]1CC[C@H](C(=O)O)CC1)C(C)(C)C` [Example 2, Trans-4-({[(1Z)-2-tert-butyl-2-ethyl-1-oxido-1λ^5-diazan-1-ylidene]amino}oxy)-cyclohexanecarboxylic acid]: the “ΔPP (mm Hg) 1-6 h” value was −9 mm Hg, the “ΔPP (mm Hg) 6-12 h” value is reported as −9 mm Hg, the “ΔPP (mm Hg) 12-18 h” value is −7 mm Hg and the “ΔSBP (mm Hg) 1-6 h” value is −14 mm Hg. The “ΔSBP (mm Hg) 6-12 h” value is −10 mm Hg and the “ΔSBP (mm Hg) 12-18 h” value was −9 mm Hg.
As to `CCCCN(/[N+]([O-])=N/O[C@H]1CC[C@H](C(=O)O)CC1)C(C)(C)C` [Example 8, Trans-4-({[(1Z)-2-butyl-2-tert-butyl-1-oxido-1λ^5-diazan-1-ylidene]amino}oxy)-cyclohexanecarboxylic acid], the “ΔPP (mm Hg) 1-6 h” value is listed as −11 mm Hg, the “ΔPP (mm Hg) 6-12 h” value is −15 mm Hg, the “ΔPP (mm Hg) 12-18 h” value is recorded as −12 mm Hg and the “ΔSBP (mm Hg) 1-6 h” value is reported as −14 mm Hg. Moreover, the “ΔSBP (mm Hg) 6-12 h” value is reported as −14 mm Hg and the “ΔSBP (mm Hg) 12-18 h” value was −8 mm Hg.
Turning to `CCN(/[N+]([O-])=N/O[C@H]1CC[C@@H](C(=O)O)CC1)C(C)(C)C` [Example 1, Cis-4-({[(1Z)-2-tert-butyl-2-ethyl-1-oxido-1λ^5-diazan-1-ylidene]amino}oxy)-cyclohexanecarboxylic acid], the “ΔPP (mm Hg) 1-6 h” value is given as −1 mm Hg, the “ΔPP (mm Hg) 6-12 h” value is −6 mm Hg, the “ΔPP (mm Hg) 12-18 h” value was −1 mm Hg and the “ΔSBP (mm Hg) 1-6 h” value is reported as −9 mm Hg. Further, the “ΔSBP (mm Hg) 6-12 h” value was −5 mm Hg and the “ΔSBP (mm Hg) 12-18 h” value is recorded as −1 mm Hg.
